Measurements as given in patent US8513248B2, “5,6,7,8-tetrahydroimidazo[1,2-A]pyrazine derivatives as P2X7 modulators” (Glaxo Group Limited, priority 2009, dated 2013).
Structures can show the parent of a compound that is named as a salt.

Molecular target: T1, human recombinant P2X7 receptors (Homo sapiens, UniProt Q99572)
T1 construct: expressed in transfected cells
T1 sequence (Q99572 1-595): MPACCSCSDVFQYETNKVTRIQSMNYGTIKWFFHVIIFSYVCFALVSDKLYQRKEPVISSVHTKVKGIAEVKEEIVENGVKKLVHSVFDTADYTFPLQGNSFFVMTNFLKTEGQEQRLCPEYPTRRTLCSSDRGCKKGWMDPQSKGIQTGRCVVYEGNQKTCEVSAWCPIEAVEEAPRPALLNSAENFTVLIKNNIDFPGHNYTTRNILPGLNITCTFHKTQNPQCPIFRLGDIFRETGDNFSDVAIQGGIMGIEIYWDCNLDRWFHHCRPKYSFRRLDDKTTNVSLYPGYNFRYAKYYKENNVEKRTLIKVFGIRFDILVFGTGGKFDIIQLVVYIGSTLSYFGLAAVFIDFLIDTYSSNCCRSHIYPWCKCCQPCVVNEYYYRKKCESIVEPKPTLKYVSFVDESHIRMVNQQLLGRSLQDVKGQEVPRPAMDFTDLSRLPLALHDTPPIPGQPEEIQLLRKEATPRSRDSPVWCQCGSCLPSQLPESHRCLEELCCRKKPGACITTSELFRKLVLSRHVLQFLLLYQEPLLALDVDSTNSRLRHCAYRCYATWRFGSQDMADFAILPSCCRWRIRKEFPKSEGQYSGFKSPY
Assay: Ethidium Accumulation Assay 1
Assay type: cell-based
Conditions: HEK293 cells stably expressing human recombinant P2X7; 1 mM ATP; ethidium 100 μM; read-out: Assay 1 (antagonist pIC50 for blocking ATP responses, ethidium accumulation) (converted)
Experimental: Studies were performed using NaCl assay buffer of the following composition: 140 mM NaCl, 10 mM HEPES [4-(2-hydroxyethyl)-1-piperazine-1-ethanesulfonic acid], 5 mM N-methyl-D-glucamine, 5.6 mM KCl, 10 mM D-glucose, 0.5 mM CaCl2 (pH 7.4).
Human Embryonic Kidney (HEK) 293 cells, stably expressing human recombinant P2X7 receptors, were grown in poly-D-lysine pretreated 96 well plates for 18-24 hours. […] The cells were washed twice with 350 μl of the assay buffer, before addition of 50 μl of the assay buffer containing the putative P2X7 receptor antagonist compound. (A small amount of dimethyl sulfoxide, for initially dissolving the compound, is optionally used and present in this […] test compound sample.) The cells were then incubated at room temperature (19-21° C.) for 30 min before addition of ATP and ethidium (100 μM final assay concentration). The ATP concentration was chosen to be close to the EC80 for the receptor type and was 1 mM for studies on the human P2X7 receptor. Incubations were continued for 8 or 16 min and were terminated by addition of 25 μl of 1.3M sucrose containing 4 mM of the P2X7 receptor antagonist Reactive Black 5 (Aldrich). […] Antagonist pIC50 values for blocking ATP responses were determined using iterative curve fitting techniques.

Row | IC50 [nM] | SMILES
1 | < 1000 | O=C(c1ccc(Cl)cc1Cl)N1CCn2cc(C(F)(F)F)nc2C1 [Example 3, 7-[(2,4-Dichlorophenyl)carbonyl]-2-(trifluoromethyl)-5,6,7,8-tetrahydroimidazo[1,2-a]pyrazine]
2 | < 10 | O=C(c1cccc(C(F)(F)F)c1Cl)N1CCn2c(-c3ccccc3)cnc2C1 [Example 4, 7-{[2-chloro-3-(trifluoromethyl)phenyl]carbonyl}-3-phenyl-5,6,7,8-tetrahydroimidazo[1,2-a]pyrazine hydrochloride]
3 | < 100 | O=C(c1ccc(Cl)cc1Cl)N1CCn2c(-c3ccccc3)cnc2C1 [Example 5, 7-[(2,4-dichlorophenyl)carbonyl]-3-phenyl-5,6,7,8-tetrahydroimidazo[1,2-a]pyrazine hydrochloride]
4 | < 100 | CCc1cn2c(n1)CN(C(=O)c1cccc(C(F)(F)F)c1Cl)CC2 [Example 6, 7-{[2-chloro-3-(trifluoromethyl)phenyl]carbonyl}-2-ethyl-5,6,7,8-tetrahydroimidazo[1,2-a]pyrazine]
5 | < 1000 | CCc1cn2c(n1)CN(C(=O)c1ccc(Cl)cc1Cl)CC2 [Example 7, 7-[(2,4-dichlorophenyl)carbonyl]-2-ethyl-5,6,7,8-tetrahydroimidazo[1,2-a]pyrazine]
6 | < 100 | O=C(c1ccccc1Cl)N1CCn2c(-c3ccccc3)cnc2C1 [Example 8, 7-[(2-chlorophenyl)carbonyl]-3-phenyl-5,6,7,8-tetrahydroimidazo[1,2-a]pyrazine hydrochloride]
7 | < 10 | O=C(c1cccc(Cl)c1Cl)N1CCn2c(-c3ccccc3)cnc2C1 [Example 9, 7-[(2,3-Dichlorophenyl)carbonyl]-3-phenyl-5,6,7,8-tetrahydroimidazo[1,2-a]pyrazine hydrochloride]
8 | < 100 | O=C(c1ccc(F)cc1Cl)N1CCn2c(-c3ccccc3)cnc2C1 [Example 10, 7-[(2-chloro-4-fluorophenyl)carbonyl]-3-phenyl-5,6,7,8-tetrahydroimidazo[1,2-a]pyrazine hydrochloride]
9 | < 501 | Cc1cn2c(n1)CN(C(=O)c1cccc(C(F)(F)F)c1Cl)CC2 [Example 11, 7-{[2-chloro-3-(trifluoromethyl)phenyl]carbonyl}-2-methyl-5,6,7,8-tetrahydroimidazo[1,2-a]pyrazine]
10 | < 501 | Cc1cn2c(n1)CN(C(=O)c1cccc(Cl)c1Cl)CC2 [Example 12, 7-[(2,3-dichlorophenyl)carbonyl]-2-methyl-5,6,7,8-tetrahydroimidazo[1,2-a]pyrazine]
11 | < 1000 | CC(C)(C)c1cn2c(n1)CN(C(=O)c1cccc(C(F)(F)F)c1Cl)CC2 [Example 13, 7-{[2-chloro-3-(trifluoromethyl)phenyl]carbonyl}-2-(1,1-dimethylethyl)-5,6,7,8-tetrahydroimidazo[1,2-a]pyrazine hydrochloride]
12 | < 501 | O=C(c1cccc(C(F)(F)F)c1Cl)N1CCn2cc(-c3ccccc3)nc2C1 [Example 14, 7-{[2-chloro-3-(trifluoromethyl)phenyl]carbonyl}-2-phenyl-5,6,7,8-tetrahydroimidazo[1,2-a]pyrazine hydrochloride]
13 | < 1000 | O=C(c1cccc(Cl)c1Cl)N1CCn2cc(-c3ccccc3)nc2C1 [Example 15, 7-[(2,3-dichlorophenyl)carbonyl]-2-phenyl-5,6,7,8-tetrahydroimidazo[1,2-a]pyrazine hydrochloride]
14 | < 10 | O=C(c1cccc(C(F)(F)F)c1Cl)N1CCn2c(-c3ccccn3)cnc2C1 [Example 16, a hydrochloride (n•HCl) salt of 7-{[2-chloro-3-(trifluoromethyl)phenyl]carbonyl}-3-(2-pyridinyl)-5,6,7,8-tetrahydroimidazo[1,2-a]pyrazine]
15 | < 100 | O=C(c1c(Cl)cc(Cl)cc1Cl)N1CCn2c(-c3ccccc3)cnc2C1 [Example 17, 3-Phenyl-7-[(2,4,6-trichlorophenyl)carbonyl]-5,6,7,8-tetrahydroimidazo[1,2-a]pyrazine hydrochloride]
16 | < 10 | O=C(c1cccc(C(F)(F)F)c1Cl)N1CCn2c(Br)cnc2C1 [Example 18, 3-Bromo-7-{[2-chloro-3-(trifluoromethyl)phenyl]carbonyl}-5,6,7,8-tetrahydroimidazo[1,2-a]pyrazine hydrochloride]
17 | < 10 | O=C(c1cccc(C(F)(F)F)c1Cl)N1CCn2c(nc(C(F)(F)F)c2Br)C1 [Example 19, 3-Bromo-7-{[2-chloro-3-(trifluoromethyl)phenyl]carbonyl}-2-(trifluoromethyl)-5,6,7,8-tetrahydroimidazo[1,2-a]pyrazine]
18 | < 10 | O=C(c1cccc(C(F)(F)F)c1Cl)N1CCn2c(nc(I)c2I)C1 [Example 20, 7-{[2-chloro-3-(trifluoromethyl)phenyl]carbonyl}-2,3-diiodo-5,6,7,8-tetrahydroimidazo[1,2-a]pyrazine]
19 | < 10 | O=C(c1cccc(C(F)(F)F)c1Cl)N1CCn2c(I)cnc2C1 [Example 21, 7-{[2-chloro-3-(trifluoromethyl)phenyl]carbonyl}-3-iodo-5,6,7,8-tetrahydroimidazo[1,2-a]pyrazine]
20 | < 100 | O=C(c1cccc(C(F)(F)F)c1Cl)N1CCn2c(-c3ccc(F)cc3)cnc2C1 [Example 22, 7-{[2-Chloro-3-(trifluoromethyl)phenyl]carbonyl}-3-(4-fluorophenyl)-5,6,7,8-tetrahydroimidazo[1,2-a]pyrazine hydrochloride]
21 | < 10 | O=C(c1cccc(C(F)(F)F)c1Cl)N1CCn2c(-c3cccnc3)cnc2C1 [Example 23, a hydrochloride salt (n•HCl) of 7-{[2-chloro-3-(trifluoromethyl)phenyl]carbonyl}-3-(3-pyridinyl)-5,6,7,8-tetrahydroimidazo[1,2-a]pyrazine]
22 | < 1000 | O=C(c1cccc(C(F)(F)F)c1Cl)N1CCn2c(-c3cccc(C(F)(F)F)c3Cl)cnc2C1 [Example 24, 3-[2-chloro-3-(trifluoromethyl)phenyl]-7-{[2-chloro-3-(trifluoromethyl)phenyl]carbonyl}-5,6,7,8-tetrahydroimidazo[1,2-a]pyrazine hydrochloride]
23 | < 501 | O=C(c1cccc(C(F)(F)F)c1Cl)N1CCn2c(-c3ccc(Cl)cc3)cnc2C1 [Example 25, 3-(4-chlorophenyl)-7-{[2-chloro-3-(trifluoromethyl)phenyl]carbonyl}-5,6,7,8-tetrahydroimidazo[1,2-a]pyrazine hydrochloride]
24 | < 100 | O=C(c1cccc(C(F)(F)F)c1Cl)N1CCn2c(nc(C(F)(F)F)c2-c2ccccc2)C1 [Example 26, 7-{[2-Chloro-3-(trifluoromethyl)phenyl]carbonyl}-3-phenyl-2-(trifluoromethyl)-5,6,7,8-tetrahydroimidazo[1,2-a]pyrazine]
25 | < 100 | Cc1ccccc1-c1cnc2n1CCN(C(=O)c1cccc(C(F)(F)F)c1Cl)C2 [Example 28, 7-{[2-Chloro-3-(trifluoromethyl)phenyl]carbonyl}-3-(2-methylphenyl)-5,6,7,8-tetrahydroimidazo[1,2-a]pyrazine hydrochloride]
26 | < 100 | O=C(c1ccc(Cl)cc1Cl)N1CCn2c(nc(Cl)c2Cl)C1 [Example 29, 2,3-dichloro-7-[(2,4-dichlorophenyl)carbonyl]-5,6,7,8-tetrahydroimidazo[1,2-a]pyrazine]
27 | < 501 | O=C(c1ccc(F)cc1Cl)N1CCn2c(Br)cnc2C1 [Example 30, 3-Bromo-7-[(2-chloro-4-fluorophenyl)carbonyl]-5,6,7,8-tetrahydroimidazo[1,2-a]pyrazine]
28 | < 10 | O=C(c1cccc(C(F)(F)F)c1Cl)N1CCn2c(-c3ccc(F)cn3)cnc2C1 [Example 31, 7-{[2-Chloro-3-(trifluoromethyl)phenyl]carbonyl}-3-(5-fluoro-2-pyridinyl)-5,6,7,8-tetrahydroimidazo[1,2-a]pyrazine]
29 | < 100 | O=C(c1ccc(F)cc1Cl)N1CCn2c(nc(C(F)(F)F)c2Br)C1 [Example 32, 3-Bromo-7-[(2-chloro-4-fluorophenyl)carbonyl]-2-(trifluoromethyl)-5,6,7,8-tetrahydroimidazo[1,2-a]pyrazine]
30 | < 10 | O=C(c1cccc(C(F)(F)F)c1Cl)N1CCn2c(nc(Cl)c2Br)C1 [Example 33, 3-Bromo-2-chloro-7-{[2-chloro-3-(trifluoromethyl)phenyl]carbonyl}-5,6,7,8-tetrahydroimidazo[1,2-a]pyrazine]
